In US9073961B2, “Substitution derivatives of N6 -benzyladenosine-5′-monophosphate, methods of preparation thereof, use thereof as medicaments, and therapeutic preparations containing these compounds” (UNIVERZITA PALACKEHO V OLOMOUCI, priority 2010, dated 2015):
pEC50: −log10 of the molar value.

What was measured:
Leukemia cell line CEM = experiment: Flow cytometry analysis of apoptosis (DNA fragmentation, sub-G1) in CEM; format: cell-based
Protocol: One of the hallmarks of apoptosis is fragmentation of DNA. It can be measured by flowcytometry of the cells stained with propidium iodide. Because the fragmentation results in a loss of a fraction of the nuclear DNA, apoptotic cells have a lower DNA content than cells in G1 phase of cell cycle and can be detected as a subG1 peak in the histogram.
Leukemia cell line CEM was cultured in cell culture medium (DMEM containing 5 g/l glucose, 2 mM glutamine, 100 U/ml penicillin, 100 μg/ml streptomycine, 10% fetal calf serum and sodium bicarbonate). 24 hours before treatment, cell suspensions were centrifuged, diluted with fresh medium to concentration of 100000 cells per ml with fresh medium and pipetted in 10 ml aliquotes Petri dishes. After an incubation for a given time period, the cells were collected by centrifugation (4° C., 600 g), washed with PBS (4° C.) and fixed with 70% ethanol at −20° C. overnight. Low molecular weight DNA fragmentse were extracted with citrate buffer (11.36 g trisodium citrate dihydrate/l). The nuclei were stained with the solution of propidium iodide in PBS (10 μg/ml) containing RNase A (60 IU per sample). After 1 hour incubation the samples were analyzed by flowcytometry (excitation 488 nm, emission above 620 nm).

Human lymphocytes = experiment: Immunosuppressive activity, 3H-thymidine incorporation in concanavalin A activated lymphocytes; format: cell-based; conditions: 72 hours, [3H]-TdR incorporation, read-out: Human lymphocytes ED50
How it was run: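 Ficoll-separated peripheral blood mononuclear cells from healthy donors, stimulated with concanavalin A and exposed to six 4-fold compound dilutions (top 266.7 μM) for 72 h at 37 °C. Proliferation read by 6 h [3H]-thymidine pulse and scintillation counting; ED50 taken from dose-response curves versus control wells.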

O=P(O)(O)OC[C@H]1O[C@@H](n2cnc3c(NCc4ccccc4O)ncnc32)[C@H](O)[C@@H]1O [Compound 21, 6-(2-hydroxybenzylamino)purine riboside-5′-monophosphate]
time after which DNA fragmentation effect was visible (Leukemia cell line CEM): ≤ 12 h
induction of DNA fragmentation (apoptotic sub-G1 fraction) (Leukemia cell line CEM; IC50, triple IC50 and fivefold IC50): induction of DNA fragmentation is dependent on the concentration of compound 21 and the time of the treatment
pEC50 (Human lymphocytes): 5.17
